Read-outs that look alike come from different tables or passages of the source.
Key:
[1] = system: Alternaria solani; experiment: Fungicide activity, mycelial growth inhibition on PDA plate; type: cell-based; settings: Alternaria solani, 50 μg/mL, A. solani; read-out: Fungicidal activity inhibition, AS
[2] = system: Cercospora arachidicola; experiment: as above; type: cell-based; settings: Mycosphaerella arachidis, 50 μg/mL, C. arachidicola; read-out: Fungicidal activity inhibition, CA
[3] = system: Gibberella zeae; experiment: microbe, parasite or virus in culture; type: cell-based; settings: Fusarium graminearum, read-out: Fungicidal activity inhibition, GZ, 50 μg/mL, G. zeae
[4] = system: Physalospora piricola; experiment: Fungicide activity, mycelial growth inhibition on PDA plate; type: cell-based; settings: 50 μg/mL, P. piricola; read-out: Fungicidal activity inhibition, PP
[5] = system: Botrytis cinerea; experiment: as above; type: cell-based; settings: Botrytis cinerea, 50 μg/mL, B. cinerea; read-out: Fungicidal activity inhibition, BC
[6] = system: Sclerotinia sclerotiorum; experiment: as above; type: cell-based; settings: Sclerotinia sclerotiorum, read-out: Fungicidal activity inhibition, SS
[7] = system: Rhizoctonia cerealis; experiment: as above; type: cell-based; settings: Ceratobasidium cereale, read-out: Fungicidal activity inhibition, RC
[8] = system: Pellicularia sasakii; experiment: as above; type: cell-based; settings: 50 μg/mL, P. sasakii; read-out: Fungicidal activity inhibition, PS
[9] = system: Phytophthora infestans (Mont) de Bary; experiment: microbe, parasite or virus in culture; type: cell-based; settings: Phytophthora infestans, read-out: Fungicidal activity inhibition, PI, 50 μg/mL, P. infestans (Mont.) de Bary
[10] = system: TMV; experiment: Anti-TMV activity on tobacco, curative mode; type: in vivo, tobacco mosaic virus; settings: Tobacco mosaic virus, 100 μg/mL, tobacco; read-out: Anti-TMV activity inhibition, Curative effect
[11] = system: TMV; experiment: Anti-TMV activity on tobacco, inactivation mode; type: in vivo, tobacco mosaic virus; settings: Tobacco mosaic virus, 100 μg/mL, read-out: Anti-TMV activity inhibition, Inactivation effect
[12] = system: TMV; experiment: Anti-TMV activity on tobacco, protection mode; type: in vivo, tobacco mosaic virus; settings: Tobacco mosaic virus, 100 μg/mL, read-out: Anti-TMV activity inhibition, Protection effect
[13] = system: TMV; experiment: Anti-TMV activity on tobacco, induction mode (systemic acquired resistance); type: in vivo, tobacco mosaic virus; settings: Tobacco mosaic virus, 100 μg/mL, read-out: Anti-TMV activity inhibition, Induction effect

| Structure (SMILES) | inhibition at 50 µg/mL [1] [%] | inhibition at 50 µg/mL [2] [%] | inhibition at 50 µg/mL [3] [%] | inhibition at 50 µg/mL [4] [%] | inhibition at 50 µg/mL [5] [%] | inhibition at 50 µg/mL ([6]; 50 μg/mL, S. sclerotiorum) [%] | inhibition at 50 µg/mL ([7]; 50 μg/mL, R. cerealis) [%] | inhibition at 50 µg/mL [7] [%] | inhibition at 50 µg/mL [8] [%] | inhibition at 50 µg/mL [9] [%] | inhibition at 100 µg/mL [10] [%] | inhibition at 100 µg/mL [11] [%] | inhibition at 100 µg/mL [12] [%] | inhibition at 100 µg/mL [13] [%] | melting point [°C] | inhibition at 50 µg/mL [6] [%] |
| --- | --- | --- | --- | --- | --- | --- | --- | --- | --- | --- | --- | --- | --- | --- | --- | --- |
| CO/N=C(/C(=O)NCC(F)F)c1ccccc1CO/N=C(\N)c1snc(Cl)c1Cl [CL04-24] | 12.7 | 16.7 | > 30 | 39.5 | 37.5 | 52.9 | 62 | > 50 | 24.2 | 22.9 | 15 ± 3.08 | 27.3 ± 6.56 | 36.8 ± 5.5 | > 30 | 118 to 120 | – |
| CO/N=C(/C(=O)NC(C)(C)CSC)c1ccccc1CO/N=C(\N)c1snc(Cl)c1Cl [CL04-25D] | 16.4 | 12.5 | 21.2 | 27.7 | 39.3 | 52.9 | 62 | – | 15.2 | 17.1 | > 30 | 0 | 21.1 ± 1.69 | 21.1 ± 3.69 | 28 to 30 | > 40 |
| CO/N=C(/C(=O)N[C@@H](C)CSC)c1ccccc1CO/N=C(\N)c1snc(Cl)c1Cl [CL04-25E] | 9.09 | 16.7 | > 30 | 10.9 | 35.7 | 52.9 | 54 | > 50 | 21.2 | 11.4 | 19.1 ± 6.56 | 0 | 26 ± 4.71 | 16 ± 7.71 | – | > 40 |
| CO/N=C(/C(=O)NC(C)(C)CSC)c1ccccc1CO/N=C(C)/C=C/c1snc(Cl)c1Cl [CL04-32E] | 5.45 | 12.5 | 24.2 | 39.5 | 32.1 | 41.2 | 58 | – | 15.2 | 11.4 | 1.52 ± 0.62 | 13.7 ± 0.55 | > 40 | > 70 | – | – |

From patent US10906880B2, “Kind of isothiazole oxime ether-containing strobilurin derivatives and its preparation methods and application” (priority 2016, dated 2021)
